In US7087729B1, “Peptide conjugates for the stabilization of membrane proteins and interactions with biological membranes” (University Health Network, priority 1999, dated 2006):
Square brackets hold non-standard residues; d marks the D form. Peptide text beside a SMILES is read from it. * marks the point of attachment. X1 = CCCCCCCCCCCCCCCCCCCCCCCCCCCC(=O)*; Orn = NCCC[C@H](N)C(=O)O

Assays:
[1] = cited from earlier work
bacteriorhodopsin = target: T1, bacteriorhodopsin (Halobacterium salinarum, UniProt P02945); test: Stabilization of detergent-solubilized bacteriorhodopsin after exchange of OG for LPD; absorption spectrum of supernatant during storage; design: species or system Halobacterium salinarium; conditions: stored in the dark at room temperature, spectra at 1 to 32 days, supernatant after 100,000xg
T1 construct: Purple membranes were isolated by overlaying 12.5 mL of the membrane suspension on a 40%/60% (10 mL/7.5 mL) sucrose gradient; made in house; host or cells: Halobacterium salinarium (strain a gift of J. Lanyi); protein isolated from purple membranes of the natural producer
T1 sequence (P02945 14-261 limits assumed): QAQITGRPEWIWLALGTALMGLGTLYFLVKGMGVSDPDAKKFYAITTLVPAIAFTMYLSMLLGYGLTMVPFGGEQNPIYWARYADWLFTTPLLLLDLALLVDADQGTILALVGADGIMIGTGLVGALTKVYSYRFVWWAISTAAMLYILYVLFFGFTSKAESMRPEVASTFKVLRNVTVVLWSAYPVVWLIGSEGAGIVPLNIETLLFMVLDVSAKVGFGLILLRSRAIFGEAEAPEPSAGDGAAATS
Description: The purple membranes were homogenized in 25 mM sodium phosphate, pH 6.9 with 1.5% OG (Anatrace, Maumee, Ohio) and mixed for 36 hours in the dark. After adjusting the pH to 5.5 with 0.1 N HCl, the solution was spun at 200,000×g for 45 minutes to obtain the soluble bacterioprhodopsin (BR) in the supernatant. The protein was concentrated to 5 mg/mL by ultrafiltration with an Amicon PM 10 membrane. BR was further purified from this solution by chromatography on a Superdex 75 gel filtration column in 25 mM sodium phosphate, pH 5.5, 1.2% (w/v) OG, at a flow rate of 1 mL/min.
Typically, the initial concentration of OG in the purified BR sample was approximately 50 mM, which is roughly twice the critical micelle concentration for this detergent.

[2] = Solubility of lipopeptide detergents in water; format: physicochemical
Description: The LPDs with chain lengths from 10 to 16 carbons are soluble in water to over 10 mM, and the LPDs with chain lengths from 18 to 24 carbons are soluble to over 1 mM. […] As a control, a reference molecule known as C-0 is made with the same peptide scaffold, but without the coupled lipids. […] Every batch of peptide is analyzed by MS to confirm the synthesis.

solubility in water (in words) [2] | SMILES | solubility in water [1] | preservation of the native bacteriorhodopsin absorption spectrum over storage time (bacteriorhodopsin) | preservation of the native bacteriorhodopsin absorption spectrum over storage time (bacteriorhodopsin; listed as octyl glucoside (OG))
 | CCCCCCCCCCCCO[C@@H]1O[C@H](CO)[C@@H](O)[C@H](O)[C@H]1O [dodecyl glucoside] | 0.008 % (w/v) |  | 
 | CCCCCCCCO[C@@H]1O[C@H](CO)[C@@H](O)[C@H](O)[C@H]1O [OG, octyl β-D-glucopyranoside] | greater than 20 % (w/v) | lost the characteristic spectum for native bacteriorhodopsin within a few days | loss of the native conformation of the protein over time
 | CCCCCCCCCCO[C@@H]1O[C@H](CO)[C@@H](O)[C@H](O)[C@H]1O [decyl glucoside] | 0.1 % (w/v) |  | 
poorly soluble in water | CCCCCCCCCCCCCCCCCCCCCCCCCCCC(=O)NCCC[C@H](NC(=O)[C@H](C)NC(=O)[C@H](CCCCN)NC(=O)[C@H](C)NC(=O)[C@H](C)NC(=O)[C@H](CCCCN)NC(=O)[C@H](CCC(=O)O)NC(=O)[C@H](C)NC(=O)[C@H](C)NC(=O)[C@H](CCC(=O)O)NC(=O)[C@H](C)NC(=O)[C@H](C)NC(=O)[C@H](Cc1ccc(O)cc1)NC(=O)[C@H](CCCCN)NC(=O)[C@H](C)NC(=O)[C@H](C)NC(=O)[C@H](CCCCN)NC(=O)[C@H](CCC(=O)O)NC(=O)[C@H](C)NC(=O)[C@H](C)NC(=O)[C@H](CCC(=O)O)NC(=O)[C@H](C)NC(=O)[C@H](CCCNC(=O)CCCCCCCCCCCCCCCCCCCCCCCCCCC)NC(=O)[C@H](C)NC(C)=O)C(=O)N[C@@H](C)C(N)=O [LPD-28] (Ac-A[Orn](X1)AEAAEKAAKYAAEAAEKAAKA[Orn](X1)A-NH2) |  |  | 
